Test results published in US4337249A, “Modulators of the complement system” (American Cyanamid Company, priority 1981, dated 1982).
Structures can show the parent of a compound that is named as a salt.

Key:
[1] = target: T1, activated human C1 (Homo sapiens, UniProt P09871); assay: Test Code 026 (C1 inhibitor); assay type: biochemical; conditions: serial twofold dilution assay; higher well number indicates higher activity; protection of human C2 from C1 in presence of C4
T1 sequence (P09871 438-688 limits assumed): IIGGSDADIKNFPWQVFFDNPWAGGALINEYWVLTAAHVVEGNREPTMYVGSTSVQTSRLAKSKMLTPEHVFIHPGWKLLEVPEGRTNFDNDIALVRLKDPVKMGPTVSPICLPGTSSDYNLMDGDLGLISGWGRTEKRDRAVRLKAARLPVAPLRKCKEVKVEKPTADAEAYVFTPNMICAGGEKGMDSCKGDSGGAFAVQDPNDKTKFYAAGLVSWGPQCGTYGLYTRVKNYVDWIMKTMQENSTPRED
T1 sequence (P09871 16-437 limits assumed): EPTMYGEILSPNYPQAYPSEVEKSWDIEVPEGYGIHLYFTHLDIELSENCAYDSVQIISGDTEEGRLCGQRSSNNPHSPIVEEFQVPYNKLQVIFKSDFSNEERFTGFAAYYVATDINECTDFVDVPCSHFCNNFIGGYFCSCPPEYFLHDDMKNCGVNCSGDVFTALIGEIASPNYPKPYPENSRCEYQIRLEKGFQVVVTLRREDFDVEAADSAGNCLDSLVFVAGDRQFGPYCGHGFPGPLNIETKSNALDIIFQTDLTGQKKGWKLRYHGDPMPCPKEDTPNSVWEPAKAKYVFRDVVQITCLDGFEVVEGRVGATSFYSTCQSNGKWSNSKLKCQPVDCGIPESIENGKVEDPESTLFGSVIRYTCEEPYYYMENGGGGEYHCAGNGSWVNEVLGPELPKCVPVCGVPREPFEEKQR
Description: (§1) An active inhibitor protects C2 from C1 and C4; (ii) Cap 50 Test Here, appropriate amounts of the test compound are added to a pool of guinea pig serum in vitro, after which the undiluted serum capillary tube assay of U.S. Pat. No. 3,876,376 is run. The concentration of compound inhibiting 50% is reported; and (iii) Guinea Pig Intraperitoneal Test (GPIP)--Guinea pigs weighing about 300 g are dosed intraperitoneally (i.p.) with 200 mg kg of the test compound dissolved in saline and adjusted to pH 7-8. Approximately 0.4 ml blood samples, taken by orbital sinus puncture 2 hours and 6 hours after injections, are collected directly into centrifuge tubes; 5 ml blood samples, taken by decapitation 24 hours after injection, are collected directly into beakers. The samples are allowed to clot, centrifuged, and the resultant sera are assayed for complement activity using the capillary complement assay. Percent inhibition are calculated by comparison with simultaneous controls. The results of the GPIP appear in Table I together with results of Test Code 026 and Cap 50.

[2] = test system: complement in pool of guinea pig serum; assay: Cap 50 Test (undiluted serum capillary tube assay); assay type: biochemical
Description: as §1

[3] = test system: serum complement activity; assay: Guinea Pig Intraperitoneal Test (GPIP); assay type: in vivo; conditions: 200 mg kg i.p., versus simultaneous controls
Description: as §1

- In vitro Activity C1 026 Wells [1]: 8 (9) Wells
Structure (SMILES): O=C(C=Cc1ccc(OS(=O)(=O)O)c(OS(=O)(=O)O)c1)N[C@@H]1O[C@H](COS(=O)(=O)O)[C@@H](O[C@H]2O[C@H](COS(=O)(=O)O)[C@@H](OS(=O)(=O)O)[C@H](OS(=O)(=O)O)[C@H]2OS(=O)(=O)O)[C@H](OS(=O)(=O)O)[C@H]1OS(=O)(=O)O [N-(4-O-α-D-Glucopyranosyl-β-D-glucopyranosyl)-3,4-dihydroxycinnamamide, nonakis (H-sulfate), (nonaester), nonasodium salt]
- In vitro Activity Cap 50 (concentration of compound inhibiting 50%) [2]: 304
- In vivo Activity (Guinea pig % Inhibition) Intraperitoneal, 2 hours ([3]; serum 2 hours after injection): 63 % Inhibition
- In vivo Activity (Guinea pig % Inhibition) Intraperitoneal, 6 hours ([3]; serum 6 hours after injection): 17 % Inhibition
- In vivo Activity (Guinea pig % Inhibition) Intraperitoneal, 24 hours ([3]; serum 24 hours after injection): 2 % Inhibition
